Results: patent US8889840B2, “Vascular leakage inhibitor” (Industry-Academic Cooperation Foundation, Yonsei University, priority 2009, dated 2014)
“Also recorded” adds a separate entry of the source.

Assays:
[1] = system: human umbilical vein endothelial cells (HUVECs); experiment: Serum depletion-induced apoptosis of HUVECs, MTT assay and cell morphology; type: cell-based; settings: serum-free medium, 5 or 10 μg/mL, 24 and 48 hours
Protocol: FIGS. 1a-1b and FIGS. 2a-2d show the result of screening Rk1 analogs that protect human umbilical vein endothelial cells (HUVECs) from serum depletion-induced apoptosis. HUVECs (3×10^5 cells/well) were seeded on a 24-well plate in M199 medium containing 20% fetal bovine serum. The next day, the cells were transferred to a medium containing 5 μg/mL (FIG. 1a) or 10 μg/mL (FIG. 1b) of the synthesized compound. Cell viability was determined by MIT assay 24 hours and 48 hours later. FIGS. 2a-2d show the result of observing cell morphologies. […]
Based on the previous researches performed by the inventors, the synthesized derivatives of Rk1 having steroid backbone and having the ability of inhibiting apoptosis of vascular endothelial cells and inhibiting permeability were screened. First, the ability of inhibiting apoptosis of vascular endothelial cells was measured. […] The next day, the cells were transferred to serum-free 11199 medium containing 5 μg/mL (FIG. 1a) or 10 μg/mL (FIG. 1b) of the compound synthesized in Synthesis Example 1-4, Cell viability was determined by MTT assay (Mosmann T, Journal of ImmunalogiCal Methods 65(1-2): 55-63 (1983); Cory A H, et al., Cancer Communications 3(7): 207-12 (1991)) 24 hours and 48 hours later.

HRECs [2] = experiment: Permeability of HRECs on transwell filter, labelled sucrose; type: cell-based, human; settings: 10 μg/mL 60 minutes, with or without 20 ng/mL VEGF
Protocol: HRECs were seeded on a transwell filter. After reaching confluency, the cells were pretreated with Sac0601 (FIG. 10a) and Sac0504 (FIG. 10b) for 60 minutes before treating with 20 ng/ml. VEGF (1 hr). The permeability of HRECs was determined by measuring radiation of […] (1 μCi/μL) diffused below the transwell using a liquid scintillation counter.
The effect of Sac0601 and Sac0504 on vascular permeability was analyzed. HRECs were seeded on a transwell filter (Corning Costar). After reaching confluency, the cells were cultured in M199 medium containing 1% FBS for 3 hours and treated with 10 μg/mL. Sac0601 (FIG. 10a) or Sac0504 (FIG. 10b) for 60 minutes, with or without pretreatment with 20 ng/mL VEGF for 60 minutes. Then, [^3H]sucrose (1 μCi [0.037 MBq.]/μL or 50 μL (0.8 μCi [0.0296 MBq])/mL, Amersham Pharmacia) were added. 30 minutes later, radiation diffused below the transwell was measured using a liquid scintillation counter (Wallac, PerkinElmer). Measurement was made at least four locations.

[3] = system: diabetic mouse (DM) model; experiment: Retinal vascular permeability in diabetic mouse (DM) model, FITC-dextran; type: in vivo, C57/BL6 mouse; settings: streptozotocin diabetic mouse, 10 μg into the vitreous body, 24 hours
Protocol: 10 μg of Sac0601 or 10 μg of Sac0504 was injected into the vitreous body of one eye of a diabetic mouse. 24 hours after the injection, 100 μL of FITC-dextran (30 mg/mL in filtered […]) was injected into the left ventricle. Then, the retina was observed under an optical microscope (FIG. 11a) and the fluorescence intensity was quantified (FIG. 11b).
For in vivo analysis of the effect of the synthesized Rk1 derivatives on increased vascular permeability in diabetic retinopathy, a diabetic mouse (DM) model was made by injecting streptozotocin to C57/BL6 mouse. Sac 0601 or Sac 0504 (10 μg) was injected into the vitreous body of the mouse. 24 hours later, 40-kDa FITC-dextran (30 mg/mL in PBS, Sigma) was injected into the left ventricle. After waiting for about 2 minutes for circulation of the tracer, the eyes were taken out and fixed immediately in 4% PFA. Then, the retina was taken out and observed under an optical microscope.

HRECs [4] = experiment: DNA fragmentation in serum-depleted HRECs; type: cell-based, human; settings: serum-free medium, 0.1-10 μg/mL, 48 hours
Protocol: HRECs (3×10^4 cells/well) were seeded on a 24-well plate in M199 medium containing 20% fetal bovine serum. The next day, the cells were transferred to a medium containing 0.1-10 μg/mL Sac0601 (FIG. 6a) or 0.1-10 μg/mL Sac0504 (FIG. 6b). DNA fragmentation was analyzed by TUNEL assay 48 hours later.
In addition, chromosomal fragmentation and nicking characteristic of apoptosis were monitored, HRECs (3×10^4 cells/well) were seeded on a 24-well plate in M199 medium (1 mL) containing 20% fetal bovine serum, Next day, the cells were transferred to serum-free M199 medium containing 0.1-10 μg/mL Sac0601 (FIG. 6a) or 0.1-10 μg/mL Sac0504 (FIG. 6b). 48 hours later, the cells were washed twice with PBS, fixed with 2% paraformaldehyde, and washed twice with PBS again, After adding 4′,6-diamidino-2-phenylindole-2HCl (DAPI; Calbiochem, USA) solution and reacting for 30 minutes in the dark, the cells were washed twice with PBS and degree of DNA fragmentation was observed under an optical microscope after covering with a cover glass.

CC(C)CCC[C@@H](C)[C@H]1CC[C@H]2[C@@H]3CC=C4C[C@@H](OC5CCCCO5)CC[C@]4(C)[C@H]3CC[C@]12C (some centres unmarked) [Sac0504]
ability of inhibiting apoptosis (cell viability by MTT assay) [1]: comparable to that of Rk1
permeability of the vascular endothelial cells (HRECs [2]): inhibiting permeability of the vascular endothelial cells
retinal vascular permeability induced in the DM [3]: partially inhibits; also recorded: only limitedly
DNA fragmentation (HRECs [4]): inhibit DNA fragmentation

CC(=O)OCC1OC(OC2CCC3(C)C(=CCC4C3CCC3(C)C(C(C)CCCC(C)C)CCC43)C2)C=CC1OC(C)=O (centres unmarked) [Sac0601]
ability of inhibiting apoptosis (cell viability by MTT assay) [1]: comparable to that of Rk1
permeability of the vascular endothelial cells (HRECs [2]): inhibiting permeability of the vascular endothelial cells
retinal vascular permeability induced in the DM [3]: completely inhibits; also recorded: very effectively
DNA fragmentation (HRECs [4]): inhibit DNA fragmentation
